Read-outs that look alike come from different tables or passages of the source.
Key:
monocytes = assay: Lipopolysaccharide-activated monocyte TNF production assay (LPS induced TNF release); assay type: cell-based, human; settings: LPS induced TNF release from monocytes, read-out: LPS induced TNFa
Procedure, shortened: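 Adherent monocytes from human PBMCs were pretreated with compound 60 min, then stimulated with E. coli LPS (30 ng/mL stock added) for 4 h at 37 °C. Supernatant TNF-α measured by sandwich ELISA; concentration giving 50% TNF reduction derived by polynomial fit.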

THP1 cells = assay: Lipopolysaccharide-activated THP1 cell TNF production assay; assay type: cell-based, human; settings: LPS-induced TNF-α production in THP1 cells
Procedure, shortened: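 THP1 cells at 1E6/mL were stimulated with LPS (1 μg/mL prepared stock) alongside 3-fold serially diluted compound for 3 h at 37 °C. Secreted TNF-α was quantified by electrochemiluminescence sandwich immunoassay. Percent of DMSO control was fitted to a 4-parameter logistic equation.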

p38α = p38α (Homo sapiens, UniProt Q16539); assay: p38 in-vitro HTRF enzyme assay; assay type: biochemical; settings: IC50 value ranges
Procedure, shortened: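 Activated recombinant human p38α with ATP and 100 nM GST-ATF2-Avitag, 1 h at RT in Tris pH 7.5/MgCl2 buffer; compound 10-point 3-fold series from about 1 μM final. HTRF 665/620 nm ratio; IC50 from 4-parameter fit, Ki via Cheng-Prusoff with experimental ATP Km.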

Chain of p38α (Q16539 whole entry): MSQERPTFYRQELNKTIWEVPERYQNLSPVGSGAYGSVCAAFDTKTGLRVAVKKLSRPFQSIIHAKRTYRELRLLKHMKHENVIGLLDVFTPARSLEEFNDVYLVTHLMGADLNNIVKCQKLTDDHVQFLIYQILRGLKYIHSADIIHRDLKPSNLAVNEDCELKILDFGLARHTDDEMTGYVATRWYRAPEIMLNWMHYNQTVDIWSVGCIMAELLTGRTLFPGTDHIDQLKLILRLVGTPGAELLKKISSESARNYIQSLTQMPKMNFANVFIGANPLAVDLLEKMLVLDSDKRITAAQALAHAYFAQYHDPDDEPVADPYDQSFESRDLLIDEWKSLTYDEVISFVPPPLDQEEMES

Row | IC50 (monocytes; Homo sapiens, Monocyte) | IC50 (THP1 cells; Homo sapiens, THP-1) | IC50 (p38α) | IC50 (monocytes) | IC50 (THP1 cells; read-out: THP-1 cell assay) | Compound
1 | < 25 nM | < 25 nM | < 25 nM |  |  | Cc1c(F)cc(C(=O)NC2CC2)cc1-c1ccn2c(-c3c(Cl)cccc3Cl)nnc2c1 [Example 59, N-cyclopropyl-3-(3-(2,6-dichlorophenyl)[1,2,4]triazolo[4,3-a]pyridin-7-yl)-5-fluoro-4-methylbenzamide]
2 | < 25 nM | < 25 nM | < 25 nM |  |  | Cc1c(F)cc(C(=O)NC2CC2)cc1-c1ccn2c(-c3c(F)cccc3F)nnc2c1 [Example 64, N-cyclopropyl-3-(3-(2,6-difluorophenyl)[1,2,4]triazolo[4,3-a]pyridin-7-yl)-5-fluoro-4-methylbenzamide]
3 |  |  | < 25 nM | 100 to 250 nM | 25 to 100 nM | Cc1ccc(C(=O)NC2CC2)cc1-c1ccn2c(C34CC5CC(CC(C5)C3)C4)nnc2c1 [Example 98, N-cyclopropyl-4-methyl-3-(3-((3s,5s,7s)-tricyclo[3.3.1.1~3,7~]dec-1-yl)[1,2,4]triazolo[4,3-a]pyridin-7-yl)benzamide]
4 | 25 to 100 nM | 25 to 100 nM | < 25 nM |  |  | Cc1ccc(C(=O)NC2(C)CC2)cc1-c1ccn2c(-c3ccccc3Cl)nnc2c1 [Example 11, 3-(3-(2-chlorophenyl)[1,2,4]triazolo[4,3-a]pyridin-7-yl)-4-methyl-N-(1-methylcyclopropyl)benzamide]
5 | 100 to 250 nM | 100 to 250 nM | 25 to 100 nM |  |  | Cc1ccc(C(=O)NC2CC2)cc1-c1ccn2c(N3CCOCC3)nnc2c1 [Example 101, N-cyclopropyl-4-methyl-3-(3-(4-morpholinyl)[1,2,4]triazolo[4,3-a]pyridin-7-yl)benzamide]
6 | 100 to 250 nM | 25 to 100 nM | < 25 nM |  |  | Cc1ccc(C(=O)NC2CC2)cc1-c1ccn2c(C3CC3)nnc2c1 [Example 93, N-cyclopropyl-3-(3-cyclopropyl[1,2,4]triazolo[4,3-a]pyridin-7-yl)-4-methylbenzamide]
7 | 250 to 1000 nM | 25 to 100 nM | < 25 nM |  |  | Cc1ccc(C(=O)NC2CC2)cc1-c1ccn2c(N3CCCC3)nnc2c1 [Example 96, N-cyclopropyl-4-methyl-3-(3-(1-pyrrolidinyl)[1,2,4]triazolo[4,3-a]pyridin-7-yl)benzamide]
8 | < 25 nM | < 25 nM | < 25 nM |  |  | Cc1cccc(Cl)c1-c1nnc2cc(-c3cc(C(=O)NC4CC4)cc(F)c3C)ccn12 [Example 91, 3-(3-(2-chloro-6-methylphenyl)[1,2,4]triazolo[4,3-a]pyridin-7-yl)-N-cyclopropyl-5-fluoro-4-methylbenzamide]
9 |  |  | 25 to 100 nM | 250 to 1000 nM | 250 to 1000 nM | 4-methyl-3-(3-(4-methyl-1,3-oxazol-5-yl)[1,2,4]triazolo[4,3-a]pyridin-7-yl)-N-(1-methyl-1H-pyrazol-5-yl)benzamide [Example 58]
10 | 100 to 250 nM | 25 to 100 nM | < 25 nM |  |  | Cc1ccc(C(=O)NC2CC2)cc1-c1ccn2c(-c3cccc(F)c3Cl)nnc2c1 [Example 39, 3-(3-(2-chloro-3-fluorophenyl)[1,2,4]triazolo[4,3-a]pyridin-7-yl)-N-cyclopropyl-4-methylbenzamide]
11 | 1000 to 5000 nM | 100 to 250 nM | < 25 nM |  |  | Cc1ccc(C(=O)Nc2ccnn2C)cc1-c1ccn2c(-c3cc(F)cc(F)c3)ncc2c1 [Example 8, 3-(3-(3,5-difluorophenyl)imidazo[1,5-a]pyridin-7-yl)-4-methyl-N-(1-methyl-1H-pyrazol-5-yl)benzamide]
12 | 100 to 250 nM | 100 to 250 nM | 25 to 100 nM |  |  | Cc1ccc(C(=O)NC2(C)CC2)cc1-c1ccn2c(-c3ccc(F)cc3C)nnc2c1 [Example 16, 3-(3-(4-fluoro-2-methylphenyl)[1,2,4]triazolo[4,3-a]pyridin-7-yl)-4-methyl-N-(1-methylcyclopropyl)benzamide]
13 | 1000 to 5000 nM | 1000 to 5000 nM | 250 to 1000 nM |  |  | Cc1ccc(C(=O)NC2CC2)cc1-c1ccn2c(N)nnc2c1 [Example 1, 3-(3-amino[1,2,4]triazolo[4,3-a]pyridin-7-yl)-N-cyclopropyl-4-methylbenzamide]
14 | 250 to 1000 nM | 100 to 250 nM | 25 to 100 nM |  |  | Cc1ccc(C(=O)NC2CC2)cc1-c1ccn2c(CC(F)(F)F)nnc2c1 [Example 31, N-cyclopropyl-4-methyl-3-(3-(2,2,2-trifluoroethyl)[1,2,4]triazolo[4,3-a]pyridin-7-yl)benzamide]
15 | 25 to 100 nM | 25 to 100 nM | < 25 nM |  |  | Cc1ccc(C(=O)Nc2ccnn2C)cc1-c1ccn2c(-c3cnccc3C(F)(F)F)ncc2c1 [Example 4, 4-methyl-N-(1-methyl-1H-pyrazol-5-yl)-3-(3-(4-(trifluoromethyl)-3-pyridinyl)imidazo[1,5-a]pyridin-7-yl)benzamide]
16 | 25 to 100 nM | < 25 nM | < 25 nM |  |  | Cc1ccc(C(=O)NC2CC2)cc1-c1ccn2c(-c3ccc(F)cc3C)nnc2c1 [Example 15, N-cyclopropyl-3-(3-(4-fluoro-2-methylphenyl)[1,2,4]triazolo[4,3-a]pyridin-7-yl)-4-methylbenzamide]
17 | 25 to 100 nM | < 25 nM | < 25 nM |  |  | Cc1ccc(C(=O)Nc2ccnn2C)cc1-c1ccn2c(-c3cccc(F)c3Cl)nnc2c1 [Example 41, 3-(3-(2-chloro-3-fluorophenyl)[1,2,4]triazolo[4,3-a]pyridin-7-yl)-4-methyl-N-(1-methyl-1H-pyrazol-5-yl)benzamide]
18 | 100 to 250 nM | 100 to 250 nM | < 25 nM |  |  | Cc1ccc(C(=O)Nc2ccnn2C)cc1-c1ccn2c(C(C)C)nnc2c1 [Example 28, 4-methyl-3-(3-(1-methylethyl)[1,2,4]triazolo[4,3-a]pyridin-7-yl)-N-(1-methyl-1H-pyrazol-5-yl)benzamide]
19 | < 25 nM | < 25 nM | < 25 nM |  |  | Cc1ccc(C(=O)Nc2ccon2)cc1-c1ccn2c(-c3c(F)cccc3F)nnc2c1 [Example 106, 3-(3-(2,6-difluorophenyl)[1,2,4]triazolo[4,3-a]pyridin-7-yl)-N-3-isoxazolyl-4-methylbenzamide]
20 | 100 to 250 nM | 100 to 250 nM | < 25 nM |  |  | Cc1ccc(C(=O)NC2CC2)cc1-c1ccn2c(NC(C)C)nnc2c1 [Example 7, N-cyclopropyl-4-methyl-3-(3-((1-methylethyl)amino)[1,2,4]triazolo[4,3-a]pyridin-7-yl)benzamide]
21 | 25 to 100 nM | < 25 nM | < 25 nM |  |  | Cc1ccc(C(=O)Nc2ccnn2C)cc1-c1cc2nnc(-c3ccccc3Cl)n2cc1C [Example 36, 3-(3-(2-chlorophenyl)-6-methyl[1,2,4]triazolo[4,3-a]pyridin-7-yl)-4-methyl-N-(1-methyl-1H-pyrazol-5-yl)benzamide]
22 | 25 to 100 nM | 25 to 100 nM | < 25 nM |  |  | Cc1ccc(C(=O)NC2CC2)cc1-c1ccn2c(C(C)(C)C)nnc2c1 [Example 105, N-cyclopropyl-3-(3-(1,1-dimethylethyl)[1,2,4]triazolo[4,3-a]pyridin-7-yl)-4-methylbenzamide]
23 | 250 to 1000 nM | 25 to 100 nM | 25 to 100 nM |  |  | Cc1ccc(C(=O)NC2CC2)cc1-c1ccn2c(-c3ccccc3Cl)nnc2c1C [Example 78, 3-(3-(2-chlorophenyl)-8-methyl[1,2,4]triazolo[4,3-a]pyridin-7-yl)-N-cyclopropyl-4-methylbenzamide]
24 | 25 to 100 nM | 25 to 100 nM | < 25 nM |  |  | Cc1ccc(C(=O)NC2CC2)cc1-c1ccn2c(CC(C)(C)C)nnc2c1 [Example 25, N-cyclopropyl-3-(3-(2,2-dimethylpropyl)[1,2,4]triazolo[4,3-a]pyridin-7-yl)-4-methylbenzamide]
25 | 25 to 100 nM | < 25 nM | < 25 nM |  |  | Cc1c(F)cc(C(=O)NC2CC2)cc1-c1ccn2c(-c3ccccc3Cl)nnc2c1 [Example 51, 3-(3-(2-chlorophenyl)[1,2,4]triazolo[4,3-a]pyridin-7-yl)-N-cyclopropyl-5-fluoro-4-methylbenzamide]
26 | 250 to 1000 nM | 25 to 100 nM | < 25 nM |  |  | Cc1ccc(C(=O)NC2CC2)cc1-c1ccn2c(N(C)c3ccccc3)nnc2c1 [Example 75, N-cyclopropyl-4-methyl-3-(3-(methyl(phenyl)amino)[1,2,4]triazolo[4,3-a]pyridin-7-yl)benzamide]
27 | 25 to 100 nM | < 25 nM | < 25 nM |  |  | Cc1ccc(C(=O)Nc2ccnn2C)cc1-c1ccn2c(-c3ccc(F)cc3C)ncc2c1 [Example 23, 3-(3-(4-fluoro-2-methylphenyl)imidazo[1,5-a]pyridin-7-yl)-4-methyl-N-(1-methyl-1H-pyrazol-5-yl)benzamide]
28 | 250 to 1000 nM | 100 to 250 nM | < 25 nM |  |  | Cc1ccc(C(=O)NC2CC2)cc1-c1ccn2c(-c3ccccc3)nnc2c1 [Example 37, N-cyclopropyl-4-methyl-3-(3-phenyl[1,2,4]triazolo[4,3-a]pyridin-7-yl)benzamide]
29 | 100 to 250 nM | 25 to 100 nM | < 25 nM |  |  | Cc1ccc(C(=O)NC2CC2)cc1-c1ccn2c(C3CCCCC3)nnc2c1 [Example 94, 3-(3-cyclohexyl[1,2,4]triazolo[4,3-a]pyridin-7-yl)-N-cyclopropyl-4-methylbenzamide]

— US7700593B2, “Imidazo- and triazolo-pyridine compounds and methods of use thereof” (Amgen Inc., priority 2006, dated 2010)
